Test results from patent publication US20190209451A1, “SOLUBILIZING AGENTS FOR UV FILTERS IN COSMETIC FORMULATIONS” (BASF SE, priority 2016, published 2019).

test: Determination of the solubility of organic UV filters in levulynates used as solvents; format: physicochemical; conditions: UV filter dissolved in the named levulynate as solvent; stirred seven days at 25° C.; UV/Vis-spectrometry
Description: Afterwards 0.02 g (1%) of the respective substance are weighed and added to the solvent. The vial is placed into a thermostated waterbath, where the suspension/solution is stirred during seven days at 25° C. If the amount of substance put into the solvent is fully soluble, additional substance is added until precipitation can be observed. After seven days, the sample is centrifuged for 30 minutes at 13000 rpm. The supernatant is transferred into a small beaker. In case the sample is still turbid, it is filtered through a 0.2 μm non-steril Membrex 25 PET filter. Clear solutions must not be filtered. When a clear solution is obtained, the concentration of the substance is determined with UV/Vis-spectrometry. For this purpose the sample may be diluted with a suitable solvent or, in case of lower concentrations, may be measured as is. If the test solvent is water, further dilution is done with water. If the test solvent is volatile, the same solvent is taken for dilution. If the test solvent is a cosmetic emollient, dioxane is used for further dilution. In order to evaluate the concentration from the UV-spectroscopic results, the extinction coefficient is needed, which is determined independently with a solvent of similar polarity like that one used for dilution of the saturated solutions. The solubility can be calculated using the equation of the Lambert-Beer-Law: [formula] • c=concentration (mol/l) • E=extinction measured at λ max. • f=dilution factor • ε=extinction coefficient at λmax [I/(mol/cm)] • d=optical pathlength [cm] Due to spectra overlapping the solubility of some crystalline UV filters in liquid UV filters cannot be determined exactly by UV spectroscopy. In this case solubilities are determined via HPLC with reversed phase C-18 columns and UV-detectors.

| Solubility of Bis-Ethylhexyloxyphenol Methoxyphenyl Triazine [w/%] | Solubility of Diethylamino Hydroxybenzoyl Hexyl Benzoate [w/%] | Solubility of Ethylhexyl Triazone [w/%] | Structure (SMILES) |
| --- | --- | --- | --- |
| 6.5 | 33.4 | – | CCCCC(CC)COC(=O)CCC(C)=O (centres unmarked) [2-Ethylhexyl-levulynate] |
| 10.4 | 42.6 | 25.1 | CCCCCCCCOC(=O)CCC(C)=O [C8-levulynate, levulinic acid octyl ester] |
| 9.1 | 31.0 | 21.0 | CCCCCCCCCCOC(=O)CCC(C)=O [C10-levulynate, levulinic acid decyl ester] |
| 3.0 | 29.1 | 11.7 | CCCCCCCCCCCCOC(=O)CCC(C)=O [C12-Levulynate, levulinic acid dodecyl ester] |
